Experimental data from patent US12509459B2, “Inhibitors of NLRP3 inflammasome” (BioAge Labs, Inc., priority 2024, dated 2025).

Target: NLRP3 (Homo sapiens, UniProt Q96P20)
Assay: THP-1 cell-based NLRP3 activation assay
Design: endogenous in cells; host or cells: THP-1 cells (PMA-differentiated, LPS-primed, nigericin-stimulated)
Conditions: PMA-differentiated THP-1 cells, LPS 100 ng/mL then 10 μM nigericin
Outline: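 After 30 min compound preincubation, inflammasome activation was triggered with 10 μM nigericin (1 h) in LPS-primed (100 ng/mL, 3 h) THP-1 cells differentiated with PMA at 20 nM/24 h or 500 nM/3 h. CellTiter-Glo measured residual cell viability.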

Sequence of NLRP3 (Q96P20 whole entry): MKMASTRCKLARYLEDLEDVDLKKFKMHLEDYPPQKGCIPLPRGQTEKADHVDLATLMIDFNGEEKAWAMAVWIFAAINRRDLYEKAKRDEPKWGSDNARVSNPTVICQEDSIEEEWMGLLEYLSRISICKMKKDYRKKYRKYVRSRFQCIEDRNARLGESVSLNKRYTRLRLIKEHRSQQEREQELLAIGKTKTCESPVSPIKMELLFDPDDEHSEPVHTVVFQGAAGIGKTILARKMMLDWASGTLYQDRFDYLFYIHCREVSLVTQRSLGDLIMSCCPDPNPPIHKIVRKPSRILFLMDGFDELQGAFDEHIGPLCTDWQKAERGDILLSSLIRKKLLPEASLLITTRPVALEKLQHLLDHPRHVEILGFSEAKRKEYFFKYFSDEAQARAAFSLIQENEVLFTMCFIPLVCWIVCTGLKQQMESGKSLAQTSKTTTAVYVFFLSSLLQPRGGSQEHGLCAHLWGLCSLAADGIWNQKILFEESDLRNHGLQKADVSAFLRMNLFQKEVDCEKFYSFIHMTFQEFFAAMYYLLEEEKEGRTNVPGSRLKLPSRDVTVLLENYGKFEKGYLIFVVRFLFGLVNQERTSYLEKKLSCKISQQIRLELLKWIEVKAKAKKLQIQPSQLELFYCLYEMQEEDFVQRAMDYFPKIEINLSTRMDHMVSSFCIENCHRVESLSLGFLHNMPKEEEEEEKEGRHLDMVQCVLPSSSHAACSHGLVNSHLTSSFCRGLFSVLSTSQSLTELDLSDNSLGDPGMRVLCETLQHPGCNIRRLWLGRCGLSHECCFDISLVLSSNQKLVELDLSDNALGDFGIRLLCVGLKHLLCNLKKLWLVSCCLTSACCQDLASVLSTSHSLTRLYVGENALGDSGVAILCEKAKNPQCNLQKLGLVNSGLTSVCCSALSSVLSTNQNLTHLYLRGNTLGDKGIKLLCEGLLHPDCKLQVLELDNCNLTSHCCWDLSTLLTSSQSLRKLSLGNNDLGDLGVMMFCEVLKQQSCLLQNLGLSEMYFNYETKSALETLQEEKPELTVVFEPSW

Row | Compound | IC50 [nM]
1 | CCOc1cc(C(=O)N(C)[C@H](CCN(CCF)CCF)c2cncc3cn[nH]c23)ccc1-c1cccc(F)c1 [Compound 064] | < 100
2 | CCOc1cc(C(=O)N(C)[C@H](c2cncc3cn[nH]c23)[C@H]2CCNC2)ccc1-c1cccc(F)c1 (single isomer, unassigned) [Compound 085] | < 100
3 | CCOc1cc(C(=O)N(Cc2cnc(C)c3cn[nH]c23)C(C)CO)ccc1-c1cccc(F)c1 (stereo not drawn) [Compound 052] | > 15000
4 | CCOc1cc(C(=O)N(C)[C@H](CO)c2cnc(C)c3cn[nH]c23)ccc1-c1cc(F)cc(F)c1 [Compound 018] | < 100
5 | CCOc1cc(C(=O)N(C)[C@H](CCN(C)C)c2cncc3cn[nH]c23)ccc1-c1cc(Cl)cc(Cl)c1 [Compound 090] | < 100
6 | CCOc1cc(C(=O)N(C)[C@@H](c2cnc(C)c3cn[nH]c23)C2CNC2)ccc1-c1cccc(F)c1 [Compound 078] | < 100
7 | CCOc1cc(C(=O)N(C)[C@H](CO)c2cnc(CO)c3cn[nH]c23)ccc1-c1cccc(F)c1 [Compound 037] | < 100
8 | CCOc1cc(C(=O)N(C)[C@@H](c2cncc3cn[nH]c23)C2CN(C)C2)ccc1-c1cccc(F)c1 [Compound 079] | < 100
9 | CCOc1cc(C(=O)N(C)C(CCN(C)CC)c2cncc3cn[nH]c23)ccc1-c1cccc(F)c1 (stereo not drawn) [Compound 066] | < 100
10 | CCOc1cc(C(=O)N(C)[C@H](CCNCCF)c2cncc3cn[nH]c23)ccc1-c1cccc(F)c1 [Compound 063] | < 100
11 | CCOc1cc(C(=O)N(C)[C@H](CCN2CC(F)C2)c2cncc3cn[nH]c23)ccc1-c1cccc(F)c1 [Compound 070] | < 100

Now from value to compound:

Row | IC50 [nM] | Compound
12 | 100 to 500 | CCOc1cc(C(=O)N(Cc2cncc3cn[nH]c23)[C@H]2CC[C@H]2N)ccc1-c1cccc(Cl)c1 [Compound 295]
13 | < 100 | CCOc1cc(C(=O)N(CCN2CCC(F)C2)Cc2cncc3cn[nH]c23)ccc1-c1cccc(F)c1 (stereo not drawn) [Compound 109]
14 | < 100 | CCOc1cc(C(=O)N(C)C(CN2CC(O)C2)c2cncc3cn[nH]c23)ccc1-c1cccc(F)c1 (stereo not drawn) [Compound 246]
15 | < 100 | CCOc1cc(C(=O)N(C)[C@H](c2cncc3cn[nH]c23)C2CNC2)ccc1-c1cccc(C)c1 [Compound 170]
16 | < 100 | CCOc1cc(C(=O)N(C)[C@@H](c2cncc3cn[nH]c23)C2CN(CC)C2)ccc1-c1cccc(C)c1 [Compound 169]
17 | < 100 | CCOc1cc(C(=O)N(C)[C@H](c2cncc3cn[nH]c23)C2CNC2)ccc1-c1ccccc1 [Compound 151]
18 | 100 to 500 | CCOc1cc(C(=O)N(C)C(CN(C)CC)c2cccc3cn[nH]c23)ccc1-c1cccc(F)c1 (stereo not drawn) [Compound 258]
19 | < 100 | [2H]C([2H])([2H])NCC[C@H](c1cncc2cn[nH]c12)N(C)C(=O)c1ccc(-c2cccc(F)c2)c(OCC)c1 [Compound 231]
20 | < 100 | CCOc1cc(C(=S)N(C)[C@H](CCN(C)C)c2cncc3cn[nH]c23)ccc1-c1cccc(F)c1 [Compound 224]
21 | < 100 | CCOc1cc(C(=O)N(Cc2cncc3cn[nH]c23)[C@H]2C[C@@H](N(C)C)C2)ccc1-c1ccccc1 [Compound 245]
22 | < 100 | CCOc1cc(C(=O)N(C)[C@@H](c2cncc3cn[nH]c23)[C@@H]2CCNC2)ccc1-c1ccccc1 [Compound 159]
23 | < 100 | CN(C)CC[C@H](c1cncc2cn[nH]c12)N(C)C(=O)c1ccc(-c2cccc(C#N)c2)c(OC2CC2)c1 [Compound 149]
24 | < 100 | CCOc1cc(C(=O)N(C)[C@H](CC[N+](C)(C)[O-])c2cncc3cn[nH]c23)ccc1-c1cccc(C)c1 [Compound 164]
25 | < 100 | CCOc1cc(C(=O)N(C)C(c2cccc3cn[nH]c23)C2CN(C)C2)ccc1-c1cccc(Cl)c1 (stereo not drawn) [Compound 241]
26 | < 100 | CN(C)CC[C@H](c1cccc2cn[nH]c12)N(C)C(=O)c1ccc(-c2ccccc2)c(OC2CC2)c1 [Compound 199]
27 | < 100 | CCOc1cc(C(=O)N(C)[C@H](CCN(C)CCF)c2cncc3cn[nH]c23)ccc1-c1cccc(F)c1 [Compound 095]
